Experiment [1] has as its system Bacillus cereus NBRC 15305. To be noted: NBRC 15305, 22 h. The procedure: (§1) Previously, three theonellapeptolide members capped with a unique acyl group at their N-termini such as methylsulfinylacetyl, methylsulfanylacetyl, and acetyl were isolated by Tsuda et al. from Okinawan marine sponge Theonella sp.. Furthermore, the antibacterial activity of these variants was evaluated against four bacterial and six fungal strains. […] To the best of our knowledge, there is no report on the antibacterial activity of theonellapeptolides with methoxyacetyl group. This encouraged us to investigate the antibacterial activity of 1–6 against the Gram-negative bacterium Escherichia coli JW5503 and the Gram-positive bacteria Bacillus cereus NBRC 15305 and Kocuria rhizophila NBRC 12708.
(§2) After incubation for 22 h (30 °C), the obtained optical density was recorded using Tecan infinite® M200 plate reader at 600 nm to determine percent growth inhibition.

For a further experiment, the system named is Escherichia coli JW5503. To be noted: JW5503, 22 h. As to the method:
as §1, §2

The subject of experiment [2] is HepG2 (human liver cancer cells). To be noted: 24 h. The procedure: (§3) Finally, the anti-austerity activity on two other different cancer cell lines was studied. Preferential cytotoxicity was assessed in a nutrient-deprived medium. Esumi et al. hypothesized that tolerance to nutrient deprivation as well as angiogenesis might be an important factor in tumor progression under hypovascular condition.
(§4) Briefly, MIA PaCa-2, HepG2 and MCF-7 Cells (2 × 10^4 cells/well) were seeded in 96-well plates and incubated in fresh DMEM. The cells were washed with Dulbecco’s phosphate-buffered saline (PBS) before the medium was replaced with DMEM or NDM containing serial dilutions of the test samples. After 24 h of incubation, the cells were washed with PBS, and 100 μL of DMEM containing 10% WST-8 cell counting kit solution was added to each well. After 3 h of incubation, the absorbance was measured at 450 nm. Cell viability was calculated from the mean values for three wells. The preferential cytotoxicity was expressed as the concentration at which 50% of cells died preferentially in NDM (PC50).

The test system of experiment [3] is MCF-7 (human breast cancer cells). To be noted: 24 h. The procedure: as §3, §4
For experiment [4], the system named is MIA PaCa-2 cells. As to the kind of experiment: Morphological analysis, EB/AO double-staining. It counts as cell-based, human. Conditions: 5 and 10 μM, NDM, 24 h, 24-well plate. As to the method: Thus, more detailed studies were performed on the major compound theonellapeptolide IId (4). Its effect on morphology status of MIA PaCa-2 cells under starvation condition was studied using a double-staining assay with EB (ethidium bromide) and AO (acridine orange). The membranes of dead or dying cells are penetrated by EB and staining in red while living cells are stained by AO, a cell-membrane-permeable dye emitting bright green fluorescence. Both AO and EB stains are known as DNA-intercalating agents. During cell death, EB and AO enter into the cell after the integrity of the cell membrane is disrupted, which facilitates the emission of orange fluorescence. […] In Figure 6A, treatment with 4 led to a dose-dependent increase in EB-stained cells emitting red fluorescence and showing drastic alteration of cell morphology. […] Real-time anti-austerity potential tracking of 4 showing morphological changes in MIA PaCa-2 cells under NDM was monitored using a Nikon sCMOS camera oxford instrument, Hamamatsu Photonics/Ti-E, for 24 h. […]
Figure 6 (A) Morphological changes of MIA PaCa-2 cells induced by 4 in a nutrient-deprived medium (NDM). […] The cells were stained with ethidium bromide (EB) and acridine orange (AO), and photographed in the fluorescence (red and green) under phase contrast modes using a Nikon sCMOS camera oxford instrument, Hamamatsu Photonics/Ti-E. (B) Structure of bioactive compound 4. […]

The test system of experiment [5] is MIA PaCa-2 cells. The experiment is described as follows: Time-lapse live imaging under NDM. It counts as cell-based, human. Conditions: 10 μM in NDM, 37 °C, 5% CO2, imaged 24 h. As to the method: Thus, more detailed studies were performed on the major compound theonellapeptolide IId (4). Its effect on morphology status of MIA PaCa-2 cells under starvation condition was studied using a double-staining assay with EB (ethidium bromide) and AO (acridine orange). The membranes of dead or dying cells are penetrated by EB and staining in red while living cells are stained by AO, a cell-membrane-permeable dye emitting bright green fluorescence. Both AO and EB stains are known as DNA-intercalating agents. During cell death, EB and AO enter into the cell after the integrity of the cell membrane is disrupted, which facilitates the emission of orange fluorescence. In this study, MIA PaCa-2 cells treated with 5 and 10 μM of theonellapeptolide IId (4) were incubated in starvation condition (NDM) for 24 h, and stained with the EB and AO dyes. In Figure 6A, treatment with 4 led to a dose-dependent increase in EB-stained cells emitting red fluorescence and showing drastic alteration of cell morphology. […] To show the details of cell death in real time, live evidence of the anticancer potential of 4 was studied. A time-lapse live imaging anti-pancreatic cancer experiment under NDM condition was performed for the first time in a multi position in the dish, for monitoring the effect of 4. Moreover, MIA PaCa-2 cells were treated with 10 μM of compound 4 in NDM and incubated at 37 °C at 5% CO2. Real-time anti-austerity potential tracking of 4 showing morphological changes in MIA PaCa-2 cells under NDM was monitored using a Nikon sCMOS camera oxford instrument, Hamamatsu Photonics/Ti-E, for 24 h. Images were captured every 10 min by rotating at several fixed positions in the dish under the phase contrast mode on a CCD Camera imaging system for 24 h. Treatment with 4 under NDM inhibited cell mobility immediately within 60 min and altered morphology of MIA PaCa-2 cells after 4 h was observed, then cell death started after 8 h, finally in 12 h complete cell death was observed (Figure 7, Movies S1 and S2, Supporting Information). In the control, MIA PaCa-2 cells survived 24 h until the end of the experiment in the NDM (Figure 7). Thus, the result of this study provided the first simultaneous multi-site live evidence of the anti-pancreatic cancer therapeutic potential of the compound theonellapeptolide IId (4) against MIA PaCa-2 cells as marine-based anti-austerity agents. […]
Real-time anti-austerity potential tracking anti-pancreatic cancer activity of 4 by showing morphological changes in MIA PaCa-2 cells under NDM was monitored using a Nikon sCMOS camera Oxford instrument, Hamamatsu Photonics/Ti-E, for 24 h. […]

Like-named read-outs stand apart in the source and are kept apart here. Where a SMILES comes first, the peptide text is derived from it. Bridges are numbered along the chain shown (N, C = ends). [ ]: non-standard residue; d: D form. The star is where a group is joined. dNMeaIle = CC[C@H](C)[C@@H](NC)C(=O)O; d(aIle) = CC[C@H](C)[C@@H](N)C(=O)O; NMeI = CC[C@H](C)[C@H](NC)C(=O)O; dNMeL = CN[C@H](CC(C)C)C(=O)O; NMeV = CN[C@H](C(=O)O)C(C)C; Methoxyacetyl = COCC(=O)*; βAla = NCCC(=O)O

As for `CC[C@H](C)[C@H]1C(=O)NCCC(=O)N[C@H]([C@@H](C)CC)C(=O)N(C)[C@@H](C(C)C)C(=O)N[C@@H](C)C(=O)NCCC(=O)N[C@H](CC(C)C)C(=O)N(C)[C@H]([C@@H](C)CC)C(=O)O[C@H](C)[C@H](NC(=O)[C@@H](CC(C)C)N(C)C(=O)[C@@H](NC(=O)COC)C(C)C)C(=O)NCCC(=O)N[C@H](CC(C)C)C(=O)N1C` [Compound 4, theonellapeptolide IId] (Methoxyacetyl-V[dNMeL]T[βAla][dL][NMeI][βAla][d(aIle)][NMeV]A[βAla][dL][dNMeaIle]; ester 3-C), the “MIC, BC” value in experiment [1] is greater than 66 µM. In the experiment on Escherichia coli JW5503, the “MIC, EC” value was greater than 66 µM. Also, in experiment [2] (read-out: IC50 in DMEM, HepG2, nutrient-rich DMEM, WST-8, absorbance 450 nm, mean of three wells), the IC50 is greater than 100 µM. The IC50 in experiment [2] (read-out: PC50 in NDM, HepG2, preferential cytotoxicity, nutrient-deprived medium (NDM), WST-8, mean of three wells) was greater than 100 µM. Besides, the IC50 in experiment [3] (read-out: IC50 in DMEM, MCF7, nutrient-rich DMEM, WST-8, absorbance 450 nm, mean of three wells) is greater than 100 µM. Further, the IC50 in experiment [3] (read-out: PC50 in NDM, MCF7, preferential cytotoxicity, nutrient-deprived medium (NDM), WST-8, mean of three wells) is greater than 100 µM. In addition, in the experiment on MIA PaCa-2 cells [4], the “EB/AO staining of cells” value was “exclusive red EB”. Also, in the experiment on MIA PaCa-2 cells [5], the “time after which altered cell morphology was observed” value was 4 h, the “time after which cell death started” value worked out at 8 h, the “time to complete cell death” value is 12 h and the “time to inhibition of cell mobility” value is on record as no more than 60 min.

The values are drawn from PMC9697519, “New Theonellapeptolides from Indonesian Marine Sponge Theonella swinhoei as Anti-Austerity Agents” (Marine Drugs, 2022).
